The subject of experiment [1] is Mantle cell lymphoma cell line Jeko. Nature of the experiment: MTS anti-proliferation assay. The experiment is classed as cell-based. The protocol:
MTS proliferation assays were performed according the CellTiter 96™ Aqueous Cell Proliferation Assay Technical Bulletin (Promega, Madison, Wis.). 5×10^5 cells were plated in each well of a 96-well plate at 37° C. and assayed for proliferation at 24, 48, and 72 hr. Proliferation signal at 50% of control was used as IC50 for growth.
(§1) Following the synthesis of 14 compounds, the anti-proliferation and pro-apoptotic activities of those compounds was evaluated in Mantle cell lymphoma cell line Jeko. Replicate cultures of Jeko were incubated in DMSO and the compounds for 24, 48 and 72 hours. FITC-Annexin V-PI stained flow cytometry was used to detect the apoptotic population of cells (Table 4).
For orientation: Tetrazolium assays rely on reduction of a dye to a coloured formazan, in cell work by metabolically active cells.

Experiment [2] shares this test system. Briefly: Induction of apoptosis, FITC-Annexin V-PI flow cytometry. The format is cell-based. The procedure:
Analysis by flow cytometry. Cell viability was also measured by flow cytometry at 24 and 48 hr using annexin-V-FITC and propidium iodide (PI) according to the manufacturer's instructions (BD Biosciences).
as §1

Experiment [3] deals with T1, recombinant human PRMT5/MEP50 enzyme (Homo sapiens, UniProt O14744).
T1 construct: purchased BPS Bioscience
Nature of the experiment: Epigenase PRMT methyltransferase (type II-specific) activity/inhibition assay kit. The format is biochemical. Conditions: 25 ng recombinant human PRMT5/MEP50 per reaction; read-out: Inhibition of PRMT5 mediated H4R3 methylation (IC50). The protocol: The inhibition of PRMT5 mediated H4R3 methylation result was obtained with Epigenase™ PRMT methyltransferase (type II-specific) activity/inhibition assay kit. 25 ng recombinant human PRMT5/MEP50 enzyme (purchased from BPS Bioscience) was used in each reaction.

Another experiment has as its system OG2 cells. Nature of the experiment: Viability/apoptosis assay alone and in combination with temozolomide. The format is cell-based. As to conditions: in combination with TMZ, FIG. 13. An excerpt: OG2 cells are tumor cells derived from glioblastoma primary tumors.
Another experiment has as its system multiple cell lines. Nature of the experiment: Proliferation of multiple cell lines (FIG. 59). Conditions: FIG. 59A-E. The experiment is classed as cell-based. The procedure:
Proliferation of multiple cell lines was evaluated for CMPD 5, CMPD 7, HLCL61, HLCL-65, and HLCL-66 (FIG. 59A-E).

The next experiment has as its system CAL-27 cell line. Nature of the experiment: Migration scratch assay. The experiment is classed as cell-based. As to conditions: CAL-27, 16 h and 24 h. The protocol: Referring to FIG. 60, PRMT5 and squamous cell carcinoma migration in response to HLCL-66 is illustrated. Migration was performed as previously described (Nowicki, M. O., et al. (2008) Neuro. Oncol. 10, 690-699). Briefly, a migration scratch assay was performed with CAL-27 cell line treated with HLCL-66 for 0, 16, and 24 hours.

T1 sequence (O14744 2-637 limits assumed): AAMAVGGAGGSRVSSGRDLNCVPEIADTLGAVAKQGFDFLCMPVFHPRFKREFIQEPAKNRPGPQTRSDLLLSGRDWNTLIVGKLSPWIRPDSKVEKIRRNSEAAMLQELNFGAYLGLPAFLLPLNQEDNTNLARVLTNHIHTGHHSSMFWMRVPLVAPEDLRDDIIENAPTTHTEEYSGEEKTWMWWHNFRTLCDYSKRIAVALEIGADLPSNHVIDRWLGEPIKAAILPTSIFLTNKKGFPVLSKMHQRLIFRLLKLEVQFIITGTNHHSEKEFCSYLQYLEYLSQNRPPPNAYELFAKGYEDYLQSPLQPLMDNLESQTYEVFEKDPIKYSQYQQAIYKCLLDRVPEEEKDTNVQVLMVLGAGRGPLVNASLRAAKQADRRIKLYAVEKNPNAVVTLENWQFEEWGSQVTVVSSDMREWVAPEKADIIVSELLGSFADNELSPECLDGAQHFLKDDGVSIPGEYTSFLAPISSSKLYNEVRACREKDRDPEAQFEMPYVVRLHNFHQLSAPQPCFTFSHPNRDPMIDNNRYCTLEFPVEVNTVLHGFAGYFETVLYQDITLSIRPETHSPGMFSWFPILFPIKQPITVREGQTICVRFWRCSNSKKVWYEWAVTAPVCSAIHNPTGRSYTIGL
T1 sequence (Q9BQA1 2-342 partner limits assumed): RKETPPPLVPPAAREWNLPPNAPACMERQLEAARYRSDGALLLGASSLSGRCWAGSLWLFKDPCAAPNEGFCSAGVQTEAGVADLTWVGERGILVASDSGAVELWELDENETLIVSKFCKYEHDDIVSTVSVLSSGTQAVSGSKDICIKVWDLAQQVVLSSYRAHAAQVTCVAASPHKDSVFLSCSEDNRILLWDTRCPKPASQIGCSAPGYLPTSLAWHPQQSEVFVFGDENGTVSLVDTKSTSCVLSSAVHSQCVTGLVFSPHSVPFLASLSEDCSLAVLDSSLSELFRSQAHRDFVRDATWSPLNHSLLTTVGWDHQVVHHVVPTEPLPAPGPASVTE

Regarding `CCn1c2ccccc2c2cc(/C=C/C(=O)c3ccccc3OC)ccc21` [HLCL-66], the concentration for half-maximal inhibition (IC50) came out at 1900 nM in experiment [1] (24 h incubation), 400 nM in experiment [1] (48 h incubation), 200 nM in experiment [1] (72 h incubation) and 26000 nM in experiment [3]. Besides, the concentration giving a half-maximal response (EC50) was found to be 1400 nM in experiment [2] (24 h) and 500 nM in experiment [2] (48 h). The “induction of apoptosis in combination” value in the experiment on OG2 cells is reported as “synergistic”. In the experiment on multiple cell lines, the “potency, proliferation of multiple cell lines” value is on record as “low micromolar range”. The “gap closure (migration)” value in the experiment with CAL-27 cell line is “affected in a dose-response fashion”.

In general, IC50 refers to the concentration needed to halve the response being measured. In general, EC50 refers to the midpoint of the concentration-response curve.

Values taken from patent publication US9856218B2, “Inhibitors of PRMT5 and methods of their use” (Ohio State Innovation Foundation, priority 2013, dated 2018).
